PMC12140054, “Small glycomimetic antagonists of the cytomegalovirus glycoprotein UL141 prevent binding to TRAIL death receptor” (The Journal of Biological Chemistry, 2025)
Several values for one entry are separate records, joined by “and”; a condition that tells them apart may be missing. Identical values can stand only once.

Assays:
HCMV UL141 = biological target: T1, HCMV UL141 (Human cytomegalovirus, UniProt Q6RJQ3); assay: biochemical; format: binding
T1 construct: we expressed and purified the full-length recombinant UL141 (amino acids 30–300); made in house
T1 sequence (Q6RJQ3 30-300): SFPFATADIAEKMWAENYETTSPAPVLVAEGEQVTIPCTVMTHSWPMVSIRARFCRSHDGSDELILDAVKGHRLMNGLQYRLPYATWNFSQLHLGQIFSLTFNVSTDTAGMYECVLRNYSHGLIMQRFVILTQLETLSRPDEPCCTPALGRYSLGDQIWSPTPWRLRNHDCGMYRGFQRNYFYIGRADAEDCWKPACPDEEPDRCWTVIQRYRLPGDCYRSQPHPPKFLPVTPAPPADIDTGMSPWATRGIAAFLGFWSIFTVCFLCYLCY
Description: To prepare HCMV UL141 for binding studies, biotinylation was performed using the BiotinTag Micro Biotinylation Kit (Sigma-Aldrich). Purified UL141 protein (50 μg in 50 μl) was mixed with 50 μl of BiotinTag reaction buffer provided in the kit. Sulfo-NHS-Biotin reagent was freshly prepared by dissolving the vial contents in 1 ml of sterile water. A calculated volume of the biotin reagent was added to achieve a 20:1 M excess of biotin to protein. The reaction mixture was incubated for 30 min at room temperature with gentle mixing to ensure efficient labeling. Following incubation, unreacted biotin was removed using the desalting column included in the kit. The biotinylated UL141 protein was eluted in 50 mM Hepes, pH 7.5, 150 mM NaCl. Biotin incorporation was verified using a colorimetric biotin quantification assay (e.g., HABA assay). The biotinylated protein was then quantified spectrophotometrically using a NanoDrop instrument and concentrated to the desired level for Biacore or ELISA binding studies. The biotinylated protein was stored at 4 °C for short-term use or −80 °C for long-term storage to maintain stability.
The sensor surface of an SA chip (Cytiva) was preconditioned with HBS-EP buffer (10 mM Hepes, 150 mM NaCl, 3 mM EDTA, 0.005% Tween-20) to stabilize the baseline and remove any loosely bound streptavidin. Before use, the buffer was filtered through a 0.2 μm polystyrene filter and degassed under vacuum for 10 min to eliminate air bubbles. Biotinylated HCMV UL141 was immobilized on the SA chip, maintaining biotinylation at 0.5 to 1.5 mol per mole of protein. Excess biotin was removed via gel filtration. UL141 was injected at 30 μl/min, achieving maximum immobilization (4000–6000 RU), followed by washing with running buffer. Residual unbound proteins were optionally removed with a 2 M NaCl pulse. To ensure optimal SPR signal detection, which depends on the analyte mass bound to the ligand, relatively high amounts of ligand were immobilized on the sensor chip to achieve a significant response signal upon binding of the small compound. […] Regeneration of the chip surface, when necessary, was performed using 5 mM NaOH. Control injections of zero concentrations and duplicate injections of selected concentrations were included to validate surface regeneration. […]

UL141 D232A mutant = biological target: T2, UL141 D232A mutant (Human cytomegalovirus, UniProt Q6RJQ3, D232A); assay: SPR binding to UL141 alanine mutant D232A; conditions: D232A (site C), 0 to 25 μM
T2 construct: extracellular domain of HCMV UL141 (residues 30–300, Gene ID: 3077418); made in house; host or cells: Sf9 (baculovirus)
T2 sequence (Q6RJQ3 30-300 D232A): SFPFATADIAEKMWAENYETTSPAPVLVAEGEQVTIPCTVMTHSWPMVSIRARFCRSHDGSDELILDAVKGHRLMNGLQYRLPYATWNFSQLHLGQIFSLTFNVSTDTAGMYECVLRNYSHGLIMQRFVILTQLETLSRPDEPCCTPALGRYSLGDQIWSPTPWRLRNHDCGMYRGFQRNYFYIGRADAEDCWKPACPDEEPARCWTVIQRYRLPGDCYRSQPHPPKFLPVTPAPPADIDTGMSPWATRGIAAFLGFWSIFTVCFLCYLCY
Source text: (§1) Collectively, the findings from molecular modeling, ELISA, and SPR prompted a more detailed investigation into the binding mechanisms, leading us to explore the possibility of distinct binding sites for UL141 in its interaction with glycomimetic compound 18. To further clarify this, we conducted mutational analysis on the surface residues of UL141 to identify specific binding sites involved in this interaction. The following residues were selected for alanine-scanning mutagenesis, followed by SPR analysis to assess their contribution to the binding affinity of UL141 for 18: Asp91, Glu92, Arg82, Arg80, and Asp37 (site A); Tyr148 and Arg146 (site B); and Arg85, Leu163, Glu164, Pro231, Trp235, and Asp232 (site C) (Fig. 9A). The UL141 mutants were generated through single alanine substitutions and recombinantly produced in the BV-Sf9 system following the same protocol as the WT UL141. […] The binding affinities of the remaining mutants were assessed using SPR, as illustrated in Figure 9. […] Binding interactions were monitored over a 300-s period. […]
(§2) Figure 9 Mutational analysis of UL141 binding sites for antagonist 18. […] An alternative representation of the same SPR data, showing all measured concentration points, is provided in panel (C), with the structure of compound 18 included for reference. […]

UL141 W235A mutant = biological target: T3, UL141 W235A mutant (Human cytomegalovirus, UniProt Q6RJQ3, W235A); assay: SPR binding to UL141 alanine mutant W235A; conditions: W235A (site C), 0 to 25 μM
T3 construct: extracellular domain of HCMV UL141 (residues 30–300, Gene ID: 3077418); made in house; host or cells: Sf9 (baculovirus)
T3 sequence (Q6RJQ3 30-300 W235A): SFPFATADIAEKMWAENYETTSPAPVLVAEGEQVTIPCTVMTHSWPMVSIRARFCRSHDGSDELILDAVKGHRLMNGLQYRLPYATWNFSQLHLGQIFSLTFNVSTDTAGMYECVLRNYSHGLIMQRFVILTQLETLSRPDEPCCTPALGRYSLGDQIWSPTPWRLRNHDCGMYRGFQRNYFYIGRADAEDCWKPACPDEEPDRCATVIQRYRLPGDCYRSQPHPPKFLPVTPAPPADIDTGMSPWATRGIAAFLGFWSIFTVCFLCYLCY
Source text: as §1, §2

[1] = UL141 immobilized, substance as analyte, 1:1 Langmuir model
[2] = UL141 immobilized, substance as analyte, 1:1 Langmuir model, listed as cmp 18

CCC1C(O)C(O)CN1Cc1ccc(I)cc1 (stereo not drawn) [Compound 18]
Kd (HCMV UL141; UL141 immobilized (ligand), substance in solution (analyte), 1:1 Langmuir model, 25 °C): 2930 nM
Kd (HCMV UL141; binding to UL141, SPR): 2930 nM and 2900 nM
Rmax (HCMV UL141; UL141 immobilized, substance as analyte): 19
koff (HCMV UL141; [1]): 0.157 s⁻¹
kon (HCMV UL141; [1]): 53600 M⁻¹ s⁻¹
koff (HCMV UL141; [2]): (1.57 ± 0.039) × 10^−1 s^−1
kon (HCMV UL141; [2]): (5.36 ± 0.003) × 10^4 M^−1s^−1
binding to UL141 mutant (UL141 D232A mutant): prevented binding
binding to UL141 mutant (UL141 W235A mutant): prevented binding
